Experimental data taken from US20150218213A1, “INHIBITORS OF ALPHA6 INTEGRIN/E-CADHERIN COMPLEX” (Università degli Studi di Torino, priority 2012, published 2015).

Legend:
[1] = system: β4 integrin subunit; experiment: Affinity purification of liver metastasis lysates on column-immobilized peptide, ELISA and phage binding of fractions; details: lysates of human liver metastases, in comparison with the controls; FIG. 8
Method: (FIG. 8A, FIG. 8B) Isolation of […]- (SEQ ID NO: 14) targeted integrin partners. To identify the molecular partner of α6 integrin in the peptide-targeted complex, synthetic […] (SEQ ID NO. 14) was immobilized on column-packed diaminodipropylamine-agarose and successively loaded with 30 mg of total protein from 7 pooled liver metastases secondary to CRCs. Protein fractions were collected after sequential incubation with high salt buffer (for the elution of unspecific proteins), CARAC-peptide (SEQ ID NO. 43) (as a negative control) and […]-peptide (SEQ ID NO. 14) (target elution). Protein amounts in collected fractions were followed by reading their OD at 280 nm (FIG. 8A). […] Control (salt, control peptide) and targeted ([…]—1, —2, and —6) (SEQ ID NO. 14) protein fractions (500 ng each) were evaluated for the presence of specific integrin subunits by an ELISA assay (FIG. 8D).
For the characterization of proteins targeted by […] […] Protein amounts in collected fractions were followed by reading their OD at 280 nm, and selected fractions were concentrated by the use of Microcon centrifugal filter devices with cut-off 10,000 (Millipore) to remove residual synthetic peptides. Proteins were quantified with the Coomassie (Bradford) Protein Assay Kit (Pierce), and 500 ng of each sample was evaluated for the presence of specific integrin subunits with a standard ELISA assay. […]

[2] = system: NCI-H630 cells in which ITGA6, CDH1 or both mRNAs were silenced; experiment: Cell adhesion to microwells coated with peptides and proteins; assay type: cell-based, human
Method: (§1) (FIG. 10A, […]) The receptor side: α6 integrin and E-cadherin are involved in the adhesion of metastatic CRC cells to the liver. HepG2 and NCI-H630 cells were incubated on 10-μm frozen sections of grossly normal human liver and adhered cells were fixed, stained and counted under a light microscope at 20× magnification. Photomicrographs representative of cell numbers (120 minutes' incubation) and morphology (5 days' incubation) are shown. The dotted line indicates a micrometastasis-like structure integrated into the hepatic tissue; arrowheads point to cell aggregates. Tissues were counterstained with hematoxylin (FIG. 10A). […] The same cells were evaluated for their capacity to adhere to the […] […] After 48 hours, cells on the lower side of the transwell membranes were fixed, stained and counted under a light microscope at 5× magnification. […] (SEQ ID NO: 14) or control peptide; after 30 minutes, adhered cells were fixed, stained and counted under a light microscope at 5× magnification. For NCI-H630, adhesion was evaluated on liver sections from 27 patients (Patient Ids: P29, P30, P33, P34, P35, P36, P56-76) and results are shown as the ratio of attached cells in the presence of […] […] In FIG. 10A-D, FIG. 10F and FIG. 10G, differences in the experimental points were evaluated for their statistical significance by the use of ANOVA followed by Bonferroni's post-test. […]

[3] = system: NCI-H630 cells; experiment: Liver adhesion assay on frozen sections of grossly normal human liver; assay type: cell-based; details: liver sections from 27 patients, versus control peptide, 30 minutes
Method: (§2) (FIG. 10A, […]) The receptor side: α6 integrin and E-cadherin are involved in the adhesion of metastatic CRC cells to the liver. HepG2 and NCI-H630 cells were incubated on 10-μm frozen sections of grossly normal human liver and adhered cells were fixed, stained and counted under a light microscope at 20× magnification. Photomicrographs representative of cell numbers (120 minutes' incubation) and morphology (5 days' incubation) are shown. The dotted line indicates a micrometastasis-like structure integrated into the hepatic tissue; arrowheads point to cell aggregates. Tissues were counterstained with hematoxylin (FIG. 10A). NCI-H630 cells silenced for ITGA6, CDH1 or both of these mRNAs were challenged in the same assay (FIG. 10B). Results are shown as mean±standard deviation for each experimental point in 3 independent experiments. (FIG. 10C) The ligand side: the […] (SEQ ID NO: 14) motif and angiopoietin-like 6 interact specifically with cells expressing the receptor proteins. Phage binding was investigated on NCI-H630 cells in which ITGA6, CDH1 or both mRNAs were silenced. Results, normalized to fd-tet binding, are shown as mean±standard deviation of 4 independent experiments. The same cells were evaluated for their capacity to adhere to the […] […] After 48 hours, cells on the lower side of the transwell membranes were fixed, stained and counted under a light microscope at 5× magnification. […] (SEQ ID NO: 14) or control peptide; after 30 minutes, adhered cells were fixed, stained and counted under a light microscope at 5× magnification. For NCI-H630, adhesion was evaluated on liver sections from 27 patients (Patient Ids: P29, P30, P33, P34, P35, P36, P56-76) and results are shown as the ratio of attached cells in the presence of […] […] In FIG. 10A-D, FIG. 10F and FIG. 10G, differences in the experimental points were evaluated for their statistical significance by the use of ANOVA followed by Bonferroni's post-test. […] Fourteen days after surgery, animals were sacrificed and livers were explanted and photographed for the quantification of external tumor areas. […]

[4] = system: primary CRC cell lines; experiment: as above; assay type: cell-based
Method: as §2

[5] = system: U293 cells stably overexpressing E-cadherin, α6 integrin or both; experiment: Cell proliferation assay (crystal violet); assay type: cell-based, human; details: 100 μM peptide, complete (10% FCS) medium; FIG. 12
Method: U293 cells stably overexpressing E-cadherin, α6 integrin or both were grown in complete (10% FCS) culture medium in the presence of either the control or […] (SEQ ID NO: 14) peptide. At 24 hour time points, cells were fixed and stained with crystal violet; their numbers were estimated by spectrophotometric evaluation. Results are shown as mean±standard deviation for each experimental point in 2 independent experiments.
To test the effects of peptides on cell proliferation, we seeded 2×10^4 cells per well in a 24-well plate, in the presence of either control or […] (SEQ ID NO: 14) peptide (100 μM). At the indicated time points, cells were fixed in glutaraldehyde, stained in crystal violet, and solubilized in 10% acetic acid. Cell growth was evaluated by absorbance at 590 nm in a microplate reader (Perkin Elmerm Waltham, Mass.). A calibration curve was set up with known numbers of cells and a linear correlation between absorbance and cell counts was established up to 5×10^5 cells/well.

[6] = system: LS-174T cells; experiment: Hepatic colonization model, intrahepatic injection of CRC cells with soluble peptide; assay type: in vivo, CD-1 nude mice; details: LS-174T intrahepatic, 14 days
Method: as §1

[7] = system: HCCM-1544 tumor and CRC cell lines (HCT-116m, SW-48, DLD-1, LS-174T); experiment: Liver homing model, intrasplenic implantation of CRC cells with soluble peptide; assay type: in vivo, CD-1 nude mice; details: 100 μM peptide co-injected, significant in all models except DLD-1
Text: To obtain an in vivo model of metastatic CRC, we implanted the patient-derived HCCM-1544 tumor as well as different CRC cell lines (HCT-116m, SW-48, DLD-1 and LS-174T) intrasplenically into CD-1 nude mice (2×10^6/mouse). To evaluate the effect of […] (SEQ ID NO: 14) on liver metastasis, we injected cells either in medium alone (vehicle) or in the presence of the soluble peptide ([…]) (SEQ ID NO: 14). At the indicated time points, mice were euthanized and their livers and spleens were explanted. Livers were photographed for the quantification of external metastatic areas. Representative pictures of whole livers from 2 mice/group are shown for macroscopic evaluation of tumor morphology; the indicated p-values are referred to statistical analysis performed either with Fisher's exact test (in black) or t-test (in red). Spleen (primary tumor) and liver (metastasis) samples were OCT-frozen, cut in 10-μm sections and immunostained with anti-α6 integrin and anti-E-cadherin antibodies, followed by imaging with a confocal microscope. […]
Six-week female CD1-nude mice were purchased from Charles River (Lecco, Italy). […] Mice were strictly monitored until completely awake, and oral ampicillin was administered for 5 days following the surgery. […] External metastatic areas were quantified using ImageJ software.

[8] = system: U293 cells stably transduced with α6 integrin, E-cadherin or both; experiment: Transwell migration toward an angiopoietin-like 6 gradient; assay type: cell-based, human; details: 48 hours
Method: as §1

Row | integrin subunit content of peptide- and phage-targeted protein fractions [1] | Molecule | cell adherence to microwells coated with peptide ([2]; NCI-H630 with ITGA6 or both mRNAs silenced, most pronounced with both downmodulated) | cell adhesion to human liver sections [3] | adhesiveness on hepatic tissues ([4]; HCT-116m, HT-29, SW-48 and DLD-1) | adhesion to normal hepatic tissues ([4]; non-metastatic HCT-116 cells) | cell proliferation [5] | liver tumors (external tumor areas) ([6]; 100 μM peptide co-injected) | overall morphology and levels of receptor complex in the tumors [6] | homing of CRC cells to the liver (liver metastases) [7] | cell binding to microwells coated with recombinant protein ([2]; NCI-H630 cells in which both mRNAs were silenced) | cell migration toward ligand gradient ([8]; U293 cells expressing both α6 integrin and E-cadherin) | cell migration toward ligand gradient ([8]; U293 cells with either α6 integrin or E-cadherin)
1 | substantial enrichment in the β4 subunit | CGIYRLRSC (Peptide inhibiting the E-cadherin/alpha6 integrin complex) [Targeting synthetic LRS-motif peptide, from New England Peptides] | impaired adherence | significant decrease in cell adhesion | significantly inhibited | not influenced | no effects | significant reduction of liver tumors | unchanged | diminished homing of CRC cells to the liver |  |  | 
2 |  | angiopoietin-like 6: secreted factor; recombinant protein from Alexis Biochemicals, or produced by transduced U293 cells (protein) RAGAPRCTYTFVLPPQKFTGAVCWSGPASTRATPEAANASELAALRMRVGRHEELLRELQRLAAADGAVAGEVRALRKESRGLSARLGQLRAQLQHEAGPGAGPGADLGAEPAAALALLGERVLNASAEAQRAAARFHQLDVKFRELAQLVTQQSSLIARLERLCPGGAGGQQQVLPPPPLVPVVPVRLVGSTSDTSRMLDPAPEPQRDQTQRQQEPMASPMPAGHPAVPTKPVGPWQDCAEARQAGHEQSGVYELRVGRHVVSVWCEQQLEGGGWTVIQRRQDGSVNFFTTWQHYKAGFGRPDGEYWLGLEPVYQLTSRGDHELLVLLEDWGGRGARAHYDGFSLEPESDHYRLRLGQYHGDAGDSLSWHNDKPFSTVDRDRDSYSGNCALYQRGGWWYHACAHSNLNGVWHHGGHYRSRYQDGVYWAEFRGGAYSLRKAAMLIRPLKL |  |  |  |  |  |  |  |  | significantly lower binding | significantly stimulated | not influenced
